{"source": "patent US20260335344A1", "about": "“NOVEL FORMULATIONS AND USES” (DANSTAR FERMENT AG, priority 2022, published 2026)", "key": {"Acinetobacter baumannii": {"tested_on": "Acinetobacter baumannii", "assay": "Relative quantity of Acinetobacter baumannii by metagenomic (16S rRNA) sequencing after L-arabinose treatment", "type": "cell-based", "from_the_text": "(§1) The objective of the experiments is to evaluate the effect of L-arabinose at different concentrations on a bacterial pool mimicking the skin microbiota by quantification of the bacterial mix using metagenomic sequencing. Five different types of bacteria are obtained from ATCC®: Micrococcus luteus (Cat. No. 4698), Corynebacterium striatum (Cat. No. BAA-1293), Staphylococcus epidermidis (Cat. No. 12228), Acinetobacter baumannii (Cat. No. 19606) and Streptococcus mitis (Cat. No. NCIMB-13770). The bacteria are common skin bacteria, selected to roughly mimic the skin microbiota. The bacteria are grown on specific media, either solid media (Brain Heart Infusion (BHI) Agar from Condalab (Cat. No. 1048.00) or Trypticase Soy (TS) Agar from Condalab (Cat. No. 1068.00)) or on liquid media (either Brain Heart Infusion Broth from Condalab (Cat. No. 1400.00) or Trypticase Soy Broth from Condalab (Cat. No. 1224.00)). The bacteria culture is performed according to the ATCC instructions and adapted to the specific conditions of each bacterium: all bacteria are grown in BHI medium at 37° C. in an aerobic environment shaking at 120 rpm, except for Streptococcus mitis which requires an anaerobic environment, so without shaking and with paraffin oil from Sigma-Aldrich (Cat. No. 185812) above the medium to cut off contact with air.\n(§2) Growth kinetics are carried out for each bacterium to determine their different growth phases and in particular the time needed to reach the exponential phase. Aerobically growing bacteria are plated on solid medium and then a colony is inoculated into 10 mL of liquid medium. An OD at 600 nm is then taken at regular time intervals from T0, the inoculation time, to obtain a growth curve until reaching the stationary phase. Anaerobically growing bacteria are directly inoculated at 500 μL into 9.5 mL of medium.\n(§3) Bacteria are treated during 6 hours with L-arabinose, diluted in culture medium. L-Arabinose is first resuspended in culture medium at a concentration of 5%. The following dilutions are directly realized in culture medium at the following concentrations: 3.5%, 2%, 1% and 0.5%.\n(§4) Each bacterium from the mix is initially grown independently. Once the exponential phase starts, Corynebacterium striatum, Micrococcus luteus and Staphylococcus epidermidis are mixed and grown in the presence or not of the L-arabinose at different concentrations for 6 hours, before reaching the stationary phase. Acinetobacter baumannii and Streptococcus mitis are grown independently with the L-arabinose due to their specific nature (Biosafety Level 2 (BSL-2) bacteria and anaerobic growth for Streptococcus mitis) and pulled in the final mix. Then, the mix is centrifugated and sent to sequencing. Bacterial DNA is isolated, sequenced, and 16S rRNA sequences are matched to taxonomic databases.\nFIG. 2 depicts the relative quantity of Acinetobacter baumannii at different concentrations of L-arabinose. Relative Acinetobacter baumannii abundance is compared in all samples after metagenomic sequencing. Bacteria are treated with L-arabinose at 5 concentrations: 0.5%, 1%, 2%, 3.5% and 5%. Only the OTU identifying the Acinetobacter baumannii genera is represented.\n(§5) The statistical analysis for FIGS. 2-5 is performed using two-tailed unpaired T-test vs NT-NS (*p-value<0.05, **p-value<0.01, ***p-value<0.001)."}, "[1]": {"tested_on": "bacterial pool mimicking the skin microbiota", "assay": "Relative quantity of bacteria in the skin microbiota mix by metagenomic sequencing", "type": "cell-based", "settings": "6 hours", "from_the_text": "as §1, §2, §3, §4\nFIG. 6 depicts the relative quantity of bacteria in the skin microbiota mix at different concentrations of L-arabinose. Relative bacteria abundance is detected in all samples after metagenomic sequencing. The bacteria seeded in the mix are Micrococcus luteus, Corynebacterium striatum, Staphylococcus epidermidis, Acinetobacter baumannii and Streptococcus mitis. Bacteria are treated with L-arabinose at 5 concentrations: 0.5%, 1%, 2%, 3.5% and 5%. All the OTUs detected are sorted by genera to be able to differentiate all the bacteria present in every sample."}, "Streptococcus mitis": {"tested_on": "Streptococcus mitis", "assay": "Relative quantity of Streptococcus mitis by metagenomic (16S rRNA) sequencing after L-arabinose treatment", "type": "cell-based", "settings": "for relative quantity of Streptococcus mitis / increase of relative quantity of Streptococcus mitis: vs control; for increase of relative quantity of Streptococcus mitis: statistically increases", "from_the_text": "as §1, §2, §3, §4, §5\nFIG. 5 depicts the relative quantity of Streptococcus mitis at different concentrations of L-arabinose. Relative Streptococcus mitis abundance is compared in all samples after metagenomic sequencing. Bacteria are treated with L-arabinose at 5 concentrations: 0.5%, 1%, 2%, 3.5% and 5%. Only the OTU identifying the Streptococcus mitis genera is represented."}, "intestinal sucrase": {"tested_on": "intestinal sucrase", "settings": "role: inhibitor; substrate sucrose; dietary supplement use; cited from earlier work"}, "Micrococcus luteus": {"tested_on": "Micrococcus luteus", "assay": "Relative quantity of Micrococcus luteus by metagenomic (16S rRNA) sequencing after L-arabinose treatment", "type": "cell-based", "settings": "6 hours, vs control", "from_the_text": "as §1, §2, §3, §4, §5\nFIG. 3 depicts the relative quantity of Micrococcus luteus at different concentrations of L-arabinose. Relative Micrococcus luteus abundance is compared in all samples after metagenomic sequencing. Bacteria are treated with L-arabinose at 5 concentrations: 0.5%, 1%, 2%, 3.5% and 5%. Only the OTU identifying the Micrococcus luteus genera is represented."}, "[2]": {"tested_on": "Staphylococcus epidermidis", "assay": "Relative quantity of Staphylococcus epidermidis by metagenomic (16S rRNA) sequencing after L-arabinose treatment", "type": "cell-based", "settings": "6 hours, vs control", "from_the_text": "as §1, with “The bacteria culture is performed according to the ATCC instructions and adapted to the specific conditions of each bacterium: all bacteria are grown in BHI medium at 37° C. in an aerobic environment shaking at 120 rpm, except for Streptococcus mitis which requires an anaerobic environment, so without shaking and with paraffin oil from Sigma-Aldrich (Cat. No. 185812) above the medium to cut off contact with air.” left out\nFIG. 4 depicts the relative quantity of Staphylococcus epidermidis at different concentrations of L-arabinose. […]"}, "[3]": {"settings": "0.5% to 5% L-arabinose, 6 hours"}}, "note": "Entries after “also recorded” stand apart in the source; their conditions may differ."}
{"smiles": "O=C[C@H](O)[C@@H](O)[C@@H](O)CO", "note": "[L-arabinose]", "values": [{"measurement": "effect on Acinetobacter baumannii", "setting": "Acinetobacter baumannii; 0.5% L-arabinose", "value": "promotes Acinetobacter baumannii"}, {"measurement": "increase of relative quantity of Acinetobacter baumannii compared to the NT-NS control", "setting": "Acinetobacter baumannii; 0.5% L-arabinose, 6 hours, vs NT-NS control", "value": 7, "unit": "%"}, {"measurement": "effect on Acinetobacter baumannii (dose dependence)", "setting": "Acinetobacter baumannii; [3]", "value": "dose-dependent effect"}, {"measurement": "relative quantity of Acinetobacter baumannii", "setting": "Acinetobacter baumannii; 1% L-arabinose, 6 hours, vs NT-NS control", "value": "the same than the control"}, {"measurement": "relative quantity of Acinetobacter baumannii", "setting": "Acinetobacter baumannii; 2% L-arabinose, 6 hours, vs NT-NS control", "value": "the same than the control"}, {"measurement": "decrease of relative quantity of Acinetobacter baumannii compared to the NT-NS control", "setting": "Acinetobacter baumannii; 5% L-arabinose, 6 hours, vs NT-NS control, statistically decreases", "value": "up to 7%"}, {"measurement": "relative quantity of bacteria in the skin microbiota mix", "setting": "[1]; 0.5% L-arabinose", "value": "Acinetobacter baumannii is outgrowing the other bacteria"}, {"measurement": "homeostasis of the skin microbiota", "setting": "[1]; 1% L-arabinose", "value": "maintaining the homeostasis of skin microbiota; also recorded: safekeeping the homeostasis of the skin microbiota"}, {"measurement": "difference of the bacterial mix compared to the NT-NS control", "setting": "[1]; 1% or 2% L-arabinose, vs NT-NS control", "value": "no significant difference"}, {"measurement": "homeostasis of the skin microbiota", "setting": "[1]; 2% L-arabinose", "value": "maintaining the homeostasis of skin microbiota; also recorded: safekeeping the homeostasis of the skin microbiota"}, {"measurement": "relative quantity of bacteria in the skin microbiota mix", "setting": "[1]; 3.5% L-arabinose", "value": "Streptococcus mitis is fast growing at the expense of Acinetobacter baumannii"}, {"measurement": "relative quantity of bacteria in the skin microbiota mix", "setting": "[1]; 5% L-arabinose", "value": "Streptococcus mitis is fast growing at the expense of Acinetobacter baumannii"}, {"measurement": "relative quantity of Streptococcus mitis", "setting": "Streptococcus mitis; 0.5% L-arabinose, 6 hours", "value": "tends to decrease"}, {"measurement": "effect on Streptococcus mitis (dose dependence)", "setting": "Streptococcus mitis; [3]", "value": "dose-dependent effect"}, {"measurement": "relative quantity of Streptococcus mitis", "setting": "Streptococcus mitis; 1% L-arabinose, 6 hours", "value": "tends to decrease"}, {"measurement": "relative quantity of Streptococcus mitis", "setting": "Streptococcus mitis; 2% L-arabinose, 6 hours", "value": "the same than the control"}, {"measurement": "increase of relative quantity of Streptococcus mitis", "setting": "Streptococcus mitis; 3.5% L-arabinose, 6 hours", "value": "more than 2 times"}, {"measurement": "increase of relative quantity of Streptococcus mitis", "setting": "Streptococcus mitis; 5% L-arabinose, 6 hours", "value": "more than 2 times"}, {"measurement": "effect on Streptococcus mitis", "setting": "Streptococcus mitis; higher concentrations of L-arabinose (3.5% and 5%)", "value": "promotes Streptococcus mitis"}, {"measurement": "inhibition of sucrose absorption by inhibiting intestinal sucrase", "setting": "intestinal sucrase", "value": "ability to inhibit absorption of sucrose"}, {"measurement": "relative quantity of Micrococcus luteus", "setting": "Micrococcus luteus; 0.5% L-arabinose", "value": "inhibit Micrococcus luteus; also recorded: statistically decreases"}, {"measurement": "relative quantity of Micrococcus luteus", "setting": "Micrococcus luteus; 1% L-arabinose", "value": "no statistically significant change"}, {"measurement": "relative quantity of Micrococcus luteus", "setting": "Micrococcus luteus; 2% L-arabinose", "value": "statistically significant increase"}, {"measurement": "relative quantity of Micrococcus luteus", "setting": "Micrococcus luteus; 3.5% L-arabinose", "value": "no statistically significant change"}, {"measurement": "relative quantity of Micrococcus luteus", "setting": "Micrococcus luteus; 5% L-arabinose", "value": "no statistically significant change"}, {"measurement": "relative quantity of Staphylococcus epidermidis", "setting": "[2]; 0.5% L-arabinose", "value": "tendency to decrease"}, {"measurement": "relative quantity of Staphylococcus epidermidis", "setting": "[2]; other concentrations (1%, 2%, 3.5%, 5%) of L-arabinose", "value": "no statistical differences"}]}
